Reference: patent US20260199309A1, “COMPOUNDS FOR THE TREATMENT OF CENTRA NERVOUS SYSTEM DISORDERS” (Autifony Therapeutics Limited, priority 2022, published 2026)
pIC50: −log10 of the molar value.

What was measured:
Type in all cases: in vitro ADME
CYP2C9 = CYP2C9 (Homo sapiens, UniProt P11712); test: CYP450 inhibition, pro-fluorescent probe substrate (2C9/FCA); conditions: recombinant human CYP450, substrate FCA; top concentration 5.00E-05
[1] = In vitro metabolic stability (CLint), rat; conditions: intrinsic clearance, incubation 0-30 minutes at 37° C. with NADPH regenerating system
Description: The objective of this study was to determine metabolic stability of test items in preclinical species and human liver microsomes. Verapamil and dextromethorphan were used as positive controls for microsomal incubation.
Incubation medium was prepared by combining 11.2 mL of potassium phosphate monobasic and 38.8 mL of potassium phosphate dibasic, diluted to 1 L with water. Cryopreserved microsomes were thawed and kept on ice until use. Microsomes were then diluted in incubation to a protein concentration of 0.56 mg/mL. Cells were centrifuged, re-suspended in medium and counted by means of a haemocytometer. Cell viability was measured using the Trypan Blue exclusion test.
NADPH regenerating system solution was prepared by dissolving 1.7 mg of NADP, 7.8 mg of G6P and 6 units of G6P-Dehydrogenase in 1 mL of 2% sodium bicarbonate solution (prepared by dissolving 20 g of NaHCO3 in 1 L of water).
Test compounds were separately dissolved in DMF to obtain 10 mM stock solutions that were further diluted in water/acetonitrile 50/50 (v/v) to obtain the corresponding 50 uM working solutions. Verapamil and dextromethorphan were dissolved in DMF in order to obtain a 10 mM verapamil solution and 10 mM dextromethorphan solution. These solutions were then diluted in the incubation medium in order to obtain a 50 uM verapamil working solution and a 50 uM dextromethorphan working solution.
800 μL-aliquots of NADPH regenerating system were pre-warmed at 37° C. for 5 minutes. […]
Metabolic stability was calculated from the peak area ratio of the remaining test compound with internal standard versus time. The intrinsic clearance (CLint) was determined from the first order elimination constant k (min^−1) (obtained from GraphPad by plotting the natural logarithm of the peak area ratio of the remaining test item with internal standard versus time), using the actual volume of the incubation V (mL), the amount of hepatocytes in the incubation M (million cells) and the hepatocellularity number per g liver Hn (120 for human).

CYP3A4 = biological target: T1, CYP3A4 (Homo sapiens, UniProt P08684); test: CYP450 inhibition, pro-fluorescent probe substrate (3A4/7BQ); conditions: recombinant human CYP450, substrate 7-BQ; top concentration 5.00E-05; read-out: CYP3A47BQ
T1 construct: purchased
T1 sequence (P08684 whole entry): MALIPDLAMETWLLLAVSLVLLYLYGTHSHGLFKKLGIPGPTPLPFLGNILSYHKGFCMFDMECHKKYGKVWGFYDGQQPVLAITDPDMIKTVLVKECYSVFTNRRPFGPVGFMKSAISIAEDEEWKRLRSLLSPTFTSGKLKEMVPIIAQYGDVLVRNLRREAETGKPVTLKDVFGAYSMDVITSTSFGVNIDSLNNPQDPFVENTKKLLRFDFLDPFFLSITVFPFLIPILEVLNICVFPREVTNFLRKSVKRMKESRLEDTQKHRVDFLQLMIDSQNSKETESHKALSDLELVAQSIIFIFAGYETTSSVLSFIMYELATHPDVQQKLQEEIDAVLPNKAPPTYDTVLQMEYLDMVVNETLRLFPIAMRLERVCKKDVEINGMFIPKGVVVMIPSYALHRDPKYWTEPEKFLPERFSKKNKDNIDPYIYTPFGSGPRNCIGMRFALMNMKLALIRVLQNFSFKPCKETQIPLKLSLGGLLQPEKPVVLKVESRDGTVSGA

Sequence of CYP2C9 (P11712 whole entry): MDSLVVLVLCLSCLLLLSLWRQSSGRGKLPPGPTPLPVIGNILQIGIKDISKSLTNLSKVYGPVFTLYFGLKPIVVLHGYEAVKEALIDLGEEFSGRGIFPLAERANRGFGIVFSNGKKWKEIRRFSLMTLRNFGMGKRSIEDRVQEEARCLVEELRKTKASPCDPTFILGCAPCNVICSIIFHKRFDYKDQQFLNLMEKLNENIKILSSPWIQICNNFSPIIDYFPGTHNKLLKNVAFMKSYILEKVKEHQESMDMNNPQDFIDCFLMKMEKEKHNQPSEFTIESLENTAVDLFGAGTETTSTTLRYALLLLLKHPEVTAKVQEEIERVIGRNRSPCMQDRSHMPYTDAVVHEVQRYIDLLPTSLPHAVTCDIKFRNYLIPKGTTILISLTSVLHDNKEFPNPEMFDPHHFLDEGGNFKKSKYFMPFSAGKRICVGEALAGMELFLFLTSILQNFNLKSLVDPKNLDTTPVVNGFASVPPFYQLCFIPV

Row | SMILES | pIC50 (CYP2C9) | CLi rat [1] | pIC50 (CYP3A4)
1 | CC1(C)NC(=O)N(c2ccc(Oc3cccc(OC(F)(F)F)c3)nc2N)C1=O [Example 9, 3-[2-amino-6-[3-(trifluoromethoxy)phenoxy]-3-pyridyl]-5,5-dimethyl-imidazolidine-2,4-dione] | < 4.30 | <0.5 mL/min/g liver | < 4.30
2 | Cc1ccc(Oc2ccc(N3C(=O)NC(C)(C)C3=O)c(N)n2)c2c1OCC21CC1 [Example 1, 3-[2-amino-6-(7-methylspiro[2H-benzofuran-3,1′-cyclopropane]-4-yl)oxy-3-pyridyl]-5,5-dimethyl-imidazolidine-2,4-dione] | 5.07 | 5.4 mL/min/g liver | < 4.30
3 | COc1nc(Oc2ccc(C)c3c2C2(CC2)CO3)ccc1N1C(=O)NC(C)(C)C1=O [Reference Example 2, reference compound] | 7.00 | 8.7 mL/min/g liver | < 4.30
